Target: T1, F508del (Homo sapiens, UniProt P13569, DEL508-508)
T1 construct: expressed in transfected cells
Assay: Protocol 1: membrane potential optical assay (FLIPR III, voltage sensing dye), identification of potentiator compounds
Format: cell-based
Settings: Table 3, compounds of Table 1
In short: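 NIH 3T3 fibroblasts stably expressing F508del were cultured at 27° C for 24 hrs for temperature correction, then treated with compounds or DMSO and loaded with a voltage-sensing redistribution dye. Forskolin added with a Cl⁻ gradient activated the channel; membrane-potential fluorescence on FLIPR III reported increased gating.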

T1 sequence (P13569 with tags, fused parts or gaps DEL508-508): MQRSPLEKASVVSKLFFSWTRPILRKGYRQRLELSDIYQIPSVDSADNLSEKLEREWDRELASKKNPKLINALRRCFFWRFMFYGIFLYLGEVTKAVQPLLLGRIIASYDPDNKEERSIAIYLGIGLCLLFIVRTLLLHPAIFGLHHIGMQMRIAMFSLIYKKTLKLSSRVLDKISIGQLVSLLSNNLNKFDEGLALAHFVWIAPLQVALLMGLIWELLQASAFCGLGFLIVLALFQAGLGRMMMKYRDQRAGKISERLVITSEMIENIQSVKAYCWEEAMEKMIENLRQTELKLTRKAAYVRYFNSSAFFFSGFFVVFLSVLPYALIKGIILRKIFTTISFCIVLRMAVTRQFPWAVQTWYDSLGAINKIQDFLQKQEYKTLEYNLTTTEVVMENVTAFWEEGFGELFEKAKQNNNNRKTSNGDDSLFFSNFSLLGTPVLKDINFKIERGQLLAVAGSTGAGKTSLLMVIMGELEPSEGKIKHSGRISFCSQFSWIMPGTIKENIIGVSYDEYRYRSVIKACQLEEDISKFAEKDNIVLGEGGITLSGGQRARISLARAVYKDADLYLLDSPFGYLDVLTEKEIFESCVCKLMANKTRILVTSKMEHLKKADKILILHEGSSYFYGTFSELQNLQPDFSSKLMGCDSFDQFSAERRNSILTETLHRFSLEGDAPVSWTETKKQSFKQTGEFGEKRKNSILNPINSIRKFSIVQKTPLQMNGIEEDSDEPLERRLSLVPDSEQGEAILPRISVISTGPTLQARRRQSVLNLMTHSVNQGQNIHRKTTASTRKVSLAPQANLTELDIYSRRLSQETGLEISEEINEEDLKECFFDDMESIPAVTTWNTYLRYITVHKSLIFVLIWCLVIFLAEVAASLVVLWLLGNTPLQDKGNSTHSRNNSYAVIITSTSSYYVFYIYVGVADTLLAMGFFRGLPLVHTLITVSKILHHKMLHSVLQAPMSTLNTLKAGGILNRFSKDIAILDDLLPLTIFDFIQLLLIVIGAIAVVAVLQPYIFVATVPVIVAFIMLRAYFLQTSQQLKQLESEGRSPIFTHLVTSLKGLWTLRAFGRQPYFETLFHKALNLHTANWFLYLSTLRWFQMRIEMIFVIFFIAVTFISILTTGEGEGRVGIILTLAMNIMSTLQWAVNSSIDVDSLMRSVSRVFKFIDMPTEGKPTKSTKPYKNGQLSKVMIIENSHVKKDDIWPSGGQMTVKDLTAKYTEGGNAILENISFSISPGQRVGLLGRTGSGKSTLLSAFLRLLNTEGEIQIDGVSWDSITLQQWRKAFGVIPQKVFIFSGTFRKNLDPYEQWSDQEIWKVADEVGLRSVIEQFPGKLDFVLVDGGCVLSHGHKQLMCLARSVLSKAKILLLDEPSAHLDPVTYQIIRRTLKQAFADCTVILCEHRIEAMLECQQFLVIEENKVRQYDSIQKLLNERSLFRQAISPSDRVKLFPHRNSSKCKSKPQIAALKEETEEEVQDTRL

`CC(C)COc1cc(F)cc(-c2ccc(C(=O)NS(=O)(=O)c3ccn[nH]3)c(N3CCC(F)(F)CC3)n2)c1` [Compound 1006, 2-(4,4-difluoro-1-piperidyl)-6-(3-fluoro-5-isobutoxy-phenyl)-N-(1H-pyrazol-5-ylsulfonyl)pyridine-3-carboxamide] was tested, and the EC30 was “+++ (“+++” means <3 uM)”.
`Cc1cc(C)c(Oc2nc(-c3ccc(OCC4CC4)cc3)ccc2C(=O)NS(=O)(=O)c2ccc[nH]c2=O)c(C)c1` [Compound 1007, 6-[4-(cyclopropylmethoxy)phenyl]-N-[(2-oxo-1H-pyridin-3-yl)sulfonyl]-2-(2,4,6-trimethylphenoxy)pyridine-3-carboxamide] was tested, and the EC30 was “+++ (“+++” means <3 uM)”.
With `CC1CCCN(c2nc(C(C)(C)C)ccc2C(=O)NS(=O)(=O)c2cccc(N)n2)C1` (stereo not drawn) [Compound 1008, N-[(6-amino-2-pyridyl)sulfonyl]-6-tert-butyl-2-(3-methyl-1-piperidyl)pyridine-3-carboxamide] the EC30 was “+++ (“+++” means <3 uM)”.
In the case of `CC(C)COc1cc(F)cc(-c2ccc(C(=O)NS(=O)(=O)c3cccc(N)n3)c(N(C)CC3(C)CC3)n2)c1` [Compound 1009, N-[(6-amino-2-pyridyl)sulfonyl]-6-(3-fluoro-5-isobutoxy-phenyl)-2-[methyl-[(1-methylcyclopropyl)methyl]amino]pyridine-3-carboxamide], the EC30 is reported as “+++ (“+++” means <3 uM)”.
In the case of `CC(C)COc1cc(F)cc(-c2ccc(C(=O)NS(=O)(=O)c3cccc(N)n3)c(N(C)CC3CC3)n2)c1` [Compound 1010, N-[(6-amino-2-pyridyl)sulfonyl]-2-[cyclopropylmethyl(methyl)amino]-6-(3-fluoro-5-isobutoxy-phenyl)pyridine-3-carboxamide], the EC30 is reported as “+++ (“+++” means <3 uM)”.
For `CC(C)COc1cccc(-c2ccc(C(=O)NS(=O)(=O)c3cccc(N)n3)c(N3CCCC3(C)C)n2)n1` [Compound 1011, N-[(6-amino-2-pyridyl)sulfonyl]-2-(2,2-dimethylpyrrolidin-1-yl)-6-(6-isobutoxy-2-pyridyl)pyridine-3-carboxamide], the EC30 was “+++ (“+++” means <3 uM)”.
For `CC(C)Oc1ccc(-c2ccc(C(=O)NS(=O)(=O)c3cccc(N)n3)c(N3CCC(OCc4ccccc4)CC3)n2)cn1` [Compound 1012, N-[(6-amino-2-pyridyl)sulfonyl]-2-(4-benzyloxy-1-piperidyl)-6-(6-isopropoxy-3-pyridyl)pyridine-3-carboxamide], the EC30 was “+++ (“+++” means <3 uM)”.
`CC(C)COc1cc(F)cc(-c2ccc(C(=O)NS(=O)(=O)c3cccc(N)n3)c(N3CC(C)CC(C)C3)n2)c1` (stereo not drawn) [Compound 1013, N-[(6-amino-2-pyridyl)sulfonyl]-2-(3,5-dimethyl-1-piperidyl)-6-(3-fluoro-5-isobutoxy-phenyl)pyridine-3-carboxamide] was tested, and the EC30 was “+++ (“+++” means <3 uM)”.
`CC(C)COc1cc(F)cc(-c2ccc(C(=O)NS(=O)(=O)c3cccc(N)c3)c(N3CCC(C)(C)CC3)n2)c1` [Compound 1014, N-(3-aminophenyl)sulfonyl-2-(4,4-dimethyl-1-piperidyl)-6-(3-fluoro-5-isobutoxy-phenyl)pyridine-3-carboxamide] was tested, and the EC30 was “+++ (“+++” means <3 uM)”.
In the case of `Cc1ccc(-c2ccc(C(=O)NS(=O)(=O)c3cccc(N)n3)c(Oc3ccc(C)cc3C)n2)cc1` [Compound 1015, N-[(6-amino-2-pyridyl)sulfonyl]-2-(2,4-dimethylphenoxy)-6-(p-tolyl)pyridine-3-carboxamide], the EC30 is reported as “+++ (“+++” means <3 uM)”.
With `Cc1cc(C)c(Oc2nc(-c3cccc(C(C)C)c3)ccc2C(=O)NS(=O)(=O)c2cccc(N)n2)c(C)c1` [Compound 1016, N-[(6-amino-2-pyridyl)sulfonyl]-6-(3-isopropylphenyl)-2-(2,4,6-trimethylphenoxy)pyridine-3-carboxamide] the EC30 was “+++ (“+++” means <3 uM)”.
In the case of `CC(C)COc1ccc(-c2ccc(C(=O)NS(=O)(=O)c3ccc[nH]c3=O)c(N3CCC(C)CC3)n2)cc1` [Compound 1017, 6-(4-isobutoxyphenyl)-2-(4-methyl-1-piperidyl)-N-[(2-oxo-1H-pyridin-3-yl)sulfonyl]pyridine-3-carboxamide], the EC30 is reported as “++ (“++” means between 3 uM and 10 uM)”.
`Cc1cc(C)c(Oc2nc(C)ccc2C(=O)NS(=O)(=O)c2cccc(N3CCN(C)CC3)n2)c(C)c1` [Compound 1018, 6-methyl-N-[[6-(4-methylpiperazin-1-yl)-2-pyridyl]sulfonyl]-2-(2,4,6-trimethylphenoxy)pyridine-3-carboxamide] was tested, and the EC30 was “++ (“++” means between 3 uM and 10 uM)”.
In the case of `CCOc1ccc(-c2ccc(C(=O)NS(=O)(=O)c3nccnc3N)c(Oc3c(C)cc(C)cc3C)n2)cc1` [Compound 1019, N-(3-aminopyrazin-2-yl)sulfonyl-6-(4-ethoxyphenyl)-2-(2,4,6-trimethylphenoxy)pyridine-3-carboxamide], the EC30 is reported as “+++ (“+++” means <3 uM)”.
For `CC1CN(c2nc(-c3ccc(OC(C)C)cc3)ccc2C(=O)NS(=O)(=O)c2cccc(N)n2)C(C)(C)C1` (stereo not drawn) [Compound 1020, N-[(6-amino-2-pyridyl)sulfonyl]-6-(4-isopropoxyphenyl)-2-(2,2,4-trimethylpyrrolidin-1-yl)pyridine-3-carboxamide], the EC30 was “+++ (“+++” means <3 uM)”.
For `CC(C)COc1cc(-c2ccc(C(=O)NS(=O)(=O)c3cccc(N)n3)c(N3CC(C)CC3(C)C)n2)ccc1Cl` (stereo not drawn) [Compound 1021, N-[(6-amino-2-pyridyl)sulfonyl]-6-(4-chloro-3-isobutoxy-phenyl)-2-(2,2,4-trimethylpyrrolidin-1-yl)pyridine-3-carboxamide], the EC30 was “+++ (“+++” means <3 uM)”.
With `CCCOc1ccc(-c2ccc(C(=O)NS(=O)(=O)c3ccc[nH]c3=O)c(Oc3c(C)cc(C)cc3C)n2)cc1F` [Compound 1022, 6-(3-fluoro-4-propoxy-phenyl)-N-[(2-oxo-1H-pyridin-3-yl)sulfonyl]-2-(2,4,6-trimethylphenoxy)pyridine-3-carboxamide] the EC30 was “++ (“++” means between 3 uM and 10 uM)”.
With `CCC1CCCN(c2nc(-c3ccc(OC(C)C)nc3)ccc2C(=O)NS(=O)(=O)c2cccc(N)n2)C1` (stereo not drawn) [Compound 1023, N-[(6-amino-2-pyridyl)sulfonyl]-2-(3-ethyl-1-piperidyl)-6-(6-isopropoxy-3-pyridyl)pyridine-3-carboxamide] the EC30 was “+++ (“+++” means <3 uM)”.
In the case of `COc1ccc(-c2cc(C(=O)NS(=O)(=O)c3cccc(N)c3)n(C(C)c3ccccc3)n2)cc1` (stereo not drawn) [Compound 1024, N-(3-aminophenyl)sulfonyl-5-(4-methoxyphenyl)-2-(1-phenylethyl)pyrazole-3-carboxamide], the EC30 is reported as “++ (“++” means between 3 uM and 10 uM)”.
In the case of `CC(C)Oc1ccc(-c2ccc(C(=O)NS(=O)(=O)c3cccc(N)n3)c(N(C)C3CCCC3)n2)cn1` [Compound 1025, N-[(6-amino-2-pyridyl)sulfonyl]-2-[cyclopentyl(methyl)amino]-6-(6-isopropoxy-3-pyridyl)pyridine-3-carboxamide], the EC30 is reported as “+++ (“+++” means <3 uM)”.
With `CC(C)Oc1ccc(-c2ccc(C(=O)NS(=O)(=O)c3cccc(N)n3)c(NCc3ccccc3)n2)cn1` [Compound 1026, N-[(6-amino-2-pyridyl)sulfonyl]-2-(benzylamino)-6-(6-isopropoxy-3-pyridyl)pyridine-3-carboxamide] the EC30 was “++ (“++” means between 3 uM and 10 uM)”.
For `Cc1cc(C)c(Oc2nc(-c3ccccc3)ccc2C(=O)NS(=O)(=O)c2cccc(NCCN)n2)c(C)c1` [Compound 1027, N-[[6-(2-aminoethylamino)-2-pyridyl]sulfonyl]-6-phenyl-2-(2,4,6-trimethylphenoxy)pyridine-3-carboxamide], the EC30 was “++ (“++” means between 3 uM and 10 uM)”.
With `COCC1CCCN(c2nc(-c3cc(F)cc(OCC(C)C)c3)ccc2C(=O)NS(=O)(=O)c2ccn[nH]2)C1` (stereo not drawn) [Compound 1028, 6-(3-fluoro-5-isobutoxy-phenyl)-2-[3-(methoxymethyl)-1-piperidyl]-N-(1H-pyrazol-5-ylsulfonyl)pyridine-3-carboxamide] the EC30 was “++ (“++” means between 3 uM and 10 uM)”.
`C[C@@H]1CC[C@H](C)N1c1nc(-c2ccc(F)cc2)ccc1C(=O)NS(=O)(=O)c1cccc(N)n1` [Compound 1029, N-[(6-amino-2-pyridyl)sulfonyl]-2-[(2S,5R)-2,5-dimethylpyrrolidin-1-yl]-6-(4-fluorophenyl)pyridine-3-carboxamide] was tested, and the EC30 was “++ (“++” means between 3 uM and 10 uM)”.
For `CCC1CCN(c2nc(-c3cc(F)cc(OCC(C)C)c3)ccc2C(=O)NS(=O)(=O)c2ccn[nH]2)CC1` [Compound 1030, 2-(4-ethyl-1-piperidyl)-6-(3-fluoro-5-isobutoxy-phenyl)-N-(1H-pyrazol-5-ylsulfonyl)pyridine-3-carboxamide], the EC30 was “+++ (“+++” means <3 uM)”.
For `CC(C)c1ccccc1Oc1nc(C(C)(C)C)ccc1C(=O)NS(=O)(=O)c1cccc(N)n1` [Compound 1031, N-[(6-amino-2-pyridyl)sulfonyl]-6-tert-butyl-2-(2-isopropylphenoxy)pyridine-3-carboxamide], the EC30 was “+++ (“+++” means <3 uM)”.
In the case of `CNc1cccc(S(=O)(=O)NC(=O)c2ccc(-c3ccccc3)nc2Oc2c(C)cc(C)cc2C)n1` [Compound 1032, N-[[6-(methylamino)-2-pyridyl]sulfonyl]-6-phenyl-2-(2,4,6-trimethylphenoxy)pyridine-3-carboxamide], the EC30 is reported as “+++ (“+++” means <3 uM)”.
`COc1ccc(-c2ccc(C(=O)NS(=O)(=O)c3cc[nH]n3)c(Oc3c(C)cc(C)cc3C)n2)cc1` [Compound 1033, 6-(4-methoxyphenyl)-N-(1H-pyrazol-3-ylsulfonyl)-2-(2,4,6-trimethylphenoxy)pyridine-3-carboxamide] was tested, and the EC30 was “+++ (“+++” means <3 uM)”.
In the case of `COc1cccc(-c2ccc(C(=O)NS(=O)(=O)c3cccc(N)n3)c(Oc3c(C)cc(C)cc3C)n2)n1` [Compound 1034, N-[(6-amino-2-pyridyl)sulfonyl]-6-(6-methoxy-2-pyridyl)-2-(2,4,6-trimethylphenoxy)pyridine-3-carboxamide], the EC30 is reported as “+++ (“+++” means <3 uM)”.
With `Cc1ccc(-c2ccc(C(=O)NS(=O)(=O)c3cccc(N)n3)c(Oc3c(C)cc(C)cc3C)n2)cc1` [Compound 1035, N-[(6-amino-2-pyridyl)sulfonyl]-6-(p-tolyl)-2-(2,4,6-trimethylphenoxy)pyridine-3-carboxamide] the EC30 was “+++ (“+++” means <3 uM)”.

Reference: patent publication US10758534B2 (Vertex Pharmaceuticals Incorporated, priority 2014, dated 2020)
